The values below are quoted from earlier work in US20100012891A1, “Tooth Whitening Compositions and Methods” (priority 2008, published 2010).

For this data set the following is noted: at six months, 16%-18% carbamide peroxide (Brunton et al., 2004).

Molecules are shown by their SMILES.

As for `NC(N)=O.OO` [carbamide peroxide], the patients with rebound was 40%.
